Assay results: ChEMBL document CHEMBL1135288, “Anthranilate sulfonamide hydroxamate TACE inhibitors. Part 1: Structure-based design of novel acetylenic P1' groups” (Bioorg Med Chem Lett, 2002)

Assays:
Interstitial collagenase = target: T1, Interstitial collagenase (Homo sapiens, UniProt P03956); experiment: Inhibition of Matrix metalloprotease-1
T1 sequence (P03956 whole entry): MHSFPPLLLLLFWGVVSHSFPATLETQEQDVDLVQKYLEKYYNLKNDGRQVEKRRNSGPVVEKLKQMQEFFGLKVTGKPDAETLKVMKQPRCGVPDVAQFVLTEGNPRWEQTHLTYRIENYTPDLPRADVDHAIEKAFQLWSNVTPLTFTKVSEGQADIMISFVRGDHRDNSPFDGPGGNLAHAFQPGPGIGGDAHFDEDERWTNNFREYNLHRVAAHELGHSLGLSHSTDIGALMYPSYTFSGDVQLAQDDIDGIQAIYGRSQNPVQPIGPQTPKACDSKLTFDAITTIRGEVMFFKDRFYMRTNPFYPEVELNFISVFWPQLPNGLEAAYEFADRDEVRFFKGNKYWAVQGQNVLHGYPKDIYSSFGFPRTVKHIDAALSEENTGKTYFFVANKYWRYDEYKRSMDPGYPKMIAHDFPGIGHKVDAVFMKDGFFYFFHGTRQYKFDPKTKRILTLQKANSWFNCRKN

[1] = target: Matrix metalloproteinase-9 (Homo sapiens, UniProt P14780); experiment: Inhibition of Matrix metalloprotease-9
Collagenase 3 = Collagenase 3 (Homo sapiens, UniProt P45452); experiment: Inhibition of Matrix metalloprotease-13
[2] = target: Disintegrin and metalloproteinase domain-containing protein 17 (Sus scrofa, UniProt O77636); experiment: Inhibition of porcine Tumor necrosis factor alpha converting enzyme
[3] = target: T2, Interstitial collagenase (Homo sapiens) (UniProt P03956); experiment: Inhibition of Matrix metalloprotease-1 at 10 uM
T2 sequence (whole entry): T1 sequence (P03956 whole entry)

Sequence of Disintegrin and metalloproteinase domain-containing protein 17 (O77636 whole entry, the tested form may be a part): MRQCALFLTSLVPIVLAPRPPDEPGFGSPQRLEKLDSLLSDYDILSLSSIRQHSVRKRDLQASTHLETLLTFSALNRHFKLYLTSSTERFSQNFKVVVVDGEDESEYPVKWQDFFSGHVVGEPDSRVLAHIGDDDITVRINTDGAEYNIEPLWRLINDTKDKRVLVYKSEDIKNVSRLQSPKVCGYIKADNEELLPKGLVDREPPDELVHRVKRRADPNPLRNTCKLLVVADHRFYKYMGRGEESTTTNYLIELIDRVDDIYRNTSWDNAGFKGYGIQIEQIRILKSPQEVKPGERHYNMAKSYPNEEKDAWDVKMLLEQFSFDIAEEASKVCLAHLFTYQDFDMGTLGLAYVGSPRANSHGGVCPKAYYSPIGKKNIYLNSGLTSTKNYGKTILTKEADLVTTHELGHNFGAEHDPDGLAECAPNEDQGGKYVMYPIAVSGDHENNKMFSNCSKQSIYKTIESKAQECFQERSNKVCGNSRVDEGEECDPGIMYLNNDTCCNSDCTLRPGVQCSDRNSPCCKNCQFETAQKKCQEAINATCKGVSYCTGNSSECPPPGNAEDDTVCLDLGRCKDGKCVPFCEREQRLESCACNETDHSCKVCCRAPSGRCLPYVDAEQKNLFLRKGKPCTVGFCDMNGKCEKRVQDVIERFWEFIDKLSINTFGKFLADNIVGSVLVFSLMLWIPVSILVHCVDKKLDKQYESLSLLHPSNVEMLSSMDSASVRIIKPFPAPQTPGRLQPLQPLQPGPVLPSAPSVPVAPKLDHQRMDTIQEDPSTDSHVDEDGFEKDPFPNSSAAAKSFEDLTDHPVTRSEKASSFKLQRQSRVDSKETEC
Sequence of Matrix metalloproteinase-9 (P14780 whole entry): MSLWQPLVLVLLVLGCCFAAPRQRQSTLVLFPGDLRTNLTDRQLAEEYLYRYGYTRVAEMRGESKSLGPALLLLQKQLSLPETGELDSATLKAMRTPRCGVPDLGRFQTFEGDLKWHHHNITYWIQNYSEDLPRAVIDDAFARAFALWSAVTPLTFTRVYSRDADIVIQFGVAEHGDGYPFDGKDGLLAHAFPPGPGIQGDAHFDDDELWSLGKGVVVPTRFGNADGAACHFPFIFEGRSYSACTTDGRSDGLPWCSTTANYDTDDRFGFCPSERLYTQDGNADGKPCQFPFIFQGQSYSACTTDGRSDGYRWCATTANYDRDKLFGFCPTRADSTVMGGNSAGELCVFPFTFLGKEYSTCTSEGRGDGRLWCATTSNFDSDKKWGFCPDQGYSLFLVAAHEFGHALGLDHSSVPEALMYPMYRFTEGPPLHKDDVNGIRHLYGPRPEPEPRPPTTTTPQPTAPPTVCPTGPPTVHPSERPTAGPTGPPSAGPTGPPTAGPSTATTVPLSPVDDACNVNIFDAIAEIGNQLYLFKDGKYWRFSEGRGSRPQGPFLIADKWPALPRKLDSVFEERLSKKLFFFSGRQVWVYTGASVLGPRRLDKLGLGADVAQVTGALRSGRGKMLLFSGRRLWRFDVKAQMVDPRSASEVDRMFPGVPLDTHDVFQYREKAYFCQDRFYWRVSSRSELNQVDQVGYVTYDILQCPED

| IC50 (Interstitial collagenase) | IC50 [1] | IC50 (Collagenase 3) | inhibition [3] | Structure (SMILES) | IC50 [2] |
| --- | --- | --- | --- | --- | --- |
| 2490 nM | 21 nM | 68 nM | – | CCCCOc1ccc(S(=O)(=O)N(C)c2c(C)cc(Br)cc2C(=O)NO)cc1 | 67 nM |
| – | – | – | – | C#CCOc1ccc(S(=O)(=O)N(C)c2c(C)cc(Br)cc2C(=O)NO)cc1 | 11 nM |
| – | – | – | 53% | CCCCC#CCOc1ccc(S(=O)(=O)N(C)c2c(C)cc(Br)cc2C(=O)NO)cc1 | – |
